The test system of series [1] is BAW (Spodoptera exigua). As to the kind of experiment: Bioassays on Beet Armyworm (BAW), 128-well diet tray assay. The series is classed as in vivo. Particulars: Spodoptera exigua, 168 h, read-out: BAW Rating. The method in brief:
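Second-instar larvae (one to five per well) placed on artificial diet treated with 50 μg/cm^2 compound in 90:10 acetone-water, eight wells per compound. Held covered at 25° C., 14:10 light-dark for five to seven days; percent mortality averaged across wells.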

Series [2] has as its system CEW (Helicoverpa zea). Nature of the series: Bioassays on Corn Earworm (CEW), 128-well diet tray assay. The class given is in vivo. Particulars: Helicoverpa zea, 168 h; percent mortality, second instar larvae, 50 μg/cm^2 on artificial diet, five to seven days, 25° C.; read-out: CEW Rating. The method in brief:
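Second-instar larvae (one to five per well) placed on artificial diet treated with 50 μg/cm^2 compound in 90:10 acetone-water and dried, eight wells per compound. Held 25 °C, 14:10 light-dark, five to seven days; percent mortality scored per well and averaged.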

Series [3] has as its system GPA (Myzus persicae). Nature of the series: Bioassays on Green Peach Aphid (GPA), foliar spray on cabbage seedlings. The class given is in vivo. As to conditions: 72 h, corrected % control (Abbott), 200 ppm spray on cabbage seedlings, three days, read-out: GPA Rating. The method in brief: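 Cabbage seedlings with 2-3 true leaves, infested with 20-50 aphids (wingless adults and nymphs) one day earlier, sprayed to runoff at 200 ppm in 0.025% Tween 20 containing 20% acetone/MeOH (1:1); four pots per treatment. Live aphids counted after three days at approx. 25° C. Percent control by Abbott's correction against solvent check.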

The test system of series [4] is CL (Trichoplusia ni). As to the kind of experiment: Bioassays on Cabbage Looper (CL), 128-well diet tray assay. The class given is in vivo. As to conditions: 168 h, percent mortality, second instar larvae, 50 μg/cm^2 on artificial diet, five to seven days, 25° C., read-out: CL Rating. How it is done:
Bioassays on Beet Armyworm (“BAW”) and Corn Earworm (“CEW”) and Cabbage Looper (“CL”)
Certain molecules disclosed in this document were tested against BAW and CEW and CL using procedures described in the following examples. In the reporting of the results, the “BAW & CEW & CL Rating Table” was used (See Table Section).
Bioassays on CL (Trichoplusia ni)
Bioassays on CL were conducted using a 128-well diet tray assay. One to five second instar CL larvae were placed in each well (3 mL) of the diet tray that had been previously filled with 1 mL of artificial diet to which 50 μg/cm^2 of the test compound (dissolved in 50 μL of 90:10 acetone-water mixture) had been applied (to each of eight wells) and then allowed to dry. Trays were covered with a clear self-adhesive cover, and held at 25° C., 14:10 light-dark for five to seven days. Percent mortality was recorded for the larvae in each well; activity in the eight wells was then averaged. The results are indicated in the table entitled “Table 3A: Assay Results” (See Table Section).

Setting [5] is: percent mortality, second instar larvae, 50 μg/cm^2 on artificial diet, five to seven days, 25° C.

Structures are written as SMILES. Like-named read-outs stand apart in the source and are kept apart here.

Our source for the melting point and pest or weed control values is patent publication US9210927B2, “Pesticidal compositions and processes related thereto” (Dow AgroSciences LLC, priority 2013, dated 2015).

By melting point is commonly meant the temperature, or range, at which the solid turns liquid. For the compound `NC(=O)c1ccc(/C=C/C(c2cc(Cl)cc(Cl)c2)C(F)(F)F)cc1` (stereo not drawn) [AC2], the melting point is 110 to 112 °C.
Turning to `FC(F)(F)C(/C=C/c1ccc(CNc2ccccn2)c(Cl)c1)c1cc(Cl)c(Cl)c(Cl)c1` (stereo not drawn) [CC43, (E)-N-(2-Chloro-4-(4,4,4-trifluoro-3-(3,4,5-trichlorophenyl)but-1-en-1-yl)benzyl)pyridin-2-amine], the pest or weed control at 50 µg/cm2 in series [1] is 50 to 100%; in series [2], 0 to 50%. In addition, in series [3], the pest or weed control at 200 ppm fell in the range of 0 to 80%.
With `O=C(CC(F)(F)F)NCc1ncc(/C=C/C(c2cc(Cl)c(Cl)c(Cl)c2)C(F)(F)F)cc1Cl` (stereo not drawn) [CC44, (E)-N-((3-Chloro-5-(4,4,4-trifluoro-3-(3,4,5-trichlorophenyl)-but-1-en-1-yl)pyridin-2-yl)methyl)-3,3,3-trifluoropropanamide], the pest or weed control at 50 µg/cm2 in series [1] and in series [2] was 50 to 100% each time. Moreover, the pest or weed control at 200 ppm in series [3] fell in the range of 0 to 80%.
Consider `CCNC(=O)N(C)NC(=O)c1ccc(/C=C/C(c2cc(Cl)c(Cl)c(Cl)c2)C(F)(F)F)cc1Br` (stereo not drawn) [Compound F1, (E)-2-(2-Bromo-4-(4,4,4-trifluoro-3-(3,4,5-trichlorophenyl)but-1-en-1-yl)benzoyl)-N-ethyl-1-methylhydrazinecarboxamide], for which the pest or weed control at 50 µg/cm2 in series [1] (setting [5]) and in series [4] was 50 to 100% throughout.
As for `O=C(NCC(F)(F)F)NNC(=O)c1ccc(/C=C/C(c2cc(Cl)c(Cl)c(Cl)c2)C(F)(F)F)cc1Br` (stereo not drawn) [Compound F7, (E)-2-(2-Bromo-4-(4,4,4-trifluoro-3-(3,4,5-trichlorophenyl)but-1-en-1-yl)benzoyl)-N-(2,2,2-trifluoroethyl)hydrazinecarboxamide], the pest or weed control at 50 µg/cm2 in series [1] (setting [5]) and in series [4] was 50 to 100% throughout.
As for `FC(F)(F)C(/C=C/c1ccc(-n2cncn2)cc1)c1ccc(Cl)c(Cl)c1` (stereo not drawn) [DC12], the pest or weed control at 50 µg/cm2 in series [1] and in series [2] was 50 to 100% in each case. In addition, the pest or weed control at 200 ppm in series [3] fell in the range of 0 to 80%.
`COc1c(Cl)cc(C(/C=C/c2ccc(-n3cncn3)c(C#N)c2)C(F)(F)F)cc1Cl` (stereo not drawn) [DC34]: the pest or weed control at 50 µg/cm2 in series [1] and in series [2] was 50 to 100% each time. In series [3], the pest or weed control at 200 ppm is 0 to 80%.
With `N#Cc1cc(/C=C/C(c2cc(Cl)c(F)c(Cl)c2)C(F)(F)F)ccc1-n1cncn1` (stereo not drawn) [DC35], the pest or weed control at 50 µg/cm2 in series [1] and in series [2] was 50 to 100% in each case. Besides, the pest or weed control at 200 ppm in series [3] lay within 0 to 80%.
As for `CN(NC(=O)c1ccc(/C=C/C(c2cc(Cl)c(Cl)c(Cl)c2)C(F)(F)F)cc1Br)C(=O)NCC(F)(F)F` (stereo not drawn) [FA1], the pest or weed control at 50 µg/cm2 in series [1] (setting [5]) and in series [4] was 50 to 100% throughout.
On to `CN(NC(=O)c1ccc(/C=C/C(c2cc(Cl)c(Cl)c(Cl)c2)C(F)(F)F)cc1C(F)(F)F)C(=O)NCC(F)(F)F` (stereo not drawn) [FA2], for which the pest or weed control at 50 µg/cm2 in series [1] (setting [5]) and in series [4] was 50 to 100% each time.
As to `CN(NC(=O)c1ccc(/C=C/C(c2cc(Br)cc(Br)c2)C(F)(F)F)cc1C(F)(F)F)C(=O)NCC(F)(F)F` (stereo not drawn) [FA4], the pest or weed control at 50 µg/cm2 in series [1] (setting [5]) and in series [4] was 50 to 100% throughout.
For the compound `CN(NC(=O)c1ccc(/C=C/C(c2cc(Br)c(Cl)c(Br)c2)C(F)(F)F)cc1C(F)(F)F)C(=O)NCC(F)(F)F` (stereo not drawn) [FA5], the pest or weed control at 50 µg/cm2 in series [1] (setting [5]) and in series [4] was 50 to 100% throughout.
In the case of `CN(NC(=O)c1ccc(/C=C/C(c2cc(Cl)c(Br)c(Cl)c2)C(F)(F)F)cc1C(F)(F)F)C(=O)NCC(F)(F)F` (stereo not drawn) [FA6], the pest or weed control at 50 µg/cm2 in series [1] (setting [5]) and in series [4] was 50 to 100% throughout.
Take `CN(NC(=O)c1ccc(/C=C/C(c2cc(Cl)c(F)c(Cl)c2)C(F)(F)F)cc1C(F)(F)F)C(=O)NCC(F)(F)F` (stereo not drawn) [FA7]: the pest or weed control at 50 µg/cm2 in series [1] (setting [5]) and in series [4] was 50 to 100% throughout.
Take `CN(NC(=O)c1ccc(/C=C/C(c2cc(Cl)c(Cl)c(Cl)c2)C(F)(F)F)cc1C(F)(F)F)C(=O)NCC(F)F` (stereo not drawn) [FA8]: the pest or weed control at 50 µg/cm2 in series [1] (setting [5]) and in series [4] was 50 to 100% in each case.
As for `CN(NC(=O)c1ccc(/C=C/C(c2cc(Cl)c(Cl)c(Cl)c2)C(F)(F)F)cc1C(F)(F)F)C(=O)NCCC(F)(F)F` (stereo not drawn) [FA9], the pest or weed control at 50 µg/cm2 in series [1] (setting [5]) and in series [4] was 50 to 100% throughout.
